According to patent US8404696B2, “Quinazoline-2,4-dione derivative, and medical compositions for the prophylaxis and treatment of cranial nerve disease containing the same” (Shin Poong Pharmaceutical Co., Ltd., priority 2008, dated 2013):

Key:
[1] = tested on: thoracic aorta of rats; assay: Relaxing effect on thoracic aorta contracted by phenylephrine (organ bath); design: species or system rats of SD species; conditions: 67 μg/mL, phenylephrine 0.5 μM, mean n = 3; for inhibition at 67 µg/mL: Rattus norvegicus, read-out: Relaxation percentage
Text: After male rats of SD species (250-300 g) were anesthetized by inhalation of ether, their thoracic aortas were extracted and put into a Krebs buffer (mM; NaCl 118, NaHCO3 27.3, KCl 4.8, MgSO4 1.2, KH2PO4 1.0, CaCl2 1.25, glucose 11.1). 2 mm of aortic ring was made under dissecting microscope and cultured in an organ bath to measure the tension of blood vessels. The organ bath was filled with Krebs buffer and saturated with 95% O2, 5% CO2 to maintain dissolved oxygen and physiological pH. Changing of tension was measured by a tension meter (Hugo-sachs, model K30) and recorded by physiological recorder (Coulbourn polygraph). The length of the blood vessels was increased step by step to make 1.0 g of basal tension for 90 minutes. The equilibrated blood vessel was contracted by phenylephrine (0.5 μM). When the contraction furrow reached equilibrium, compounds were added, followed by observation of relaxation response.

[2] = tested on: pentylentetrazole (PTZ)-induced convulsion; assay: Anti-convulsant effect, pentylentetrazole (PTZ) test; format: in vivo; conditions: 10 mg/kg intraperitoneally, PTZ 80 mg/kg subcutaneously; for mortality rate / Induction percentage of convulsion: (animals/total); for mortality rate: negative control 70(17/23); for Induction percentage of convulsion: negative control 100(23/23); for Initiation time of convulsion: negative control 5.0 ± 0.7; for Duration of convulsion: negative control 46.7 ± 3.3
Protocol: An experiment was performed by the method of Ali et al. (Ali, A. et al. 2006, Pharmacological Reports, 58: 242-245). A 10 mg/kg dose of compound was intraperitoneally administered to identify the anti-convulsant effect and the effect was observed (Table 8). Researching the process of activity was performed by the Anti-epileptic Drug Development Program (ADD) of NIH during development of the anti-convulsant drug. One of the assessed items of anti-convulsant activity in the first step of this program is the pentylentetrazole (PTZ) test. […] After 10 mg/kg of the testing drug was administered, assessment was performed by estimating the initiation time of convulsion, duration until convulsion completely disappeared and mortality rate. It was assessed as having an anti-convulsant effect when a single episode of clonic spasm was not shown over 5 seconds on at least one of the 4 laboratory animals after PTZ administration.

[3] = tested on: mixed culture of nerve cells-glial cells; assay: Protecting effect on NMDA-induced nerve cell death (LDH release); format: cell-based, ICR mouse; conditions: 100 μM NMDA, LDH release after 24 hours
Protocol: Isolation and culture of nerve cells were performed by Choi's method (Choi, D. W. 1985, Neurosci. Lett., 58: 293-297). That is, the cortex was isolated in fetus ICR mouse that was 14 days pregnant, and then single cells were obtained from the tissue using pipette. The cells were aliquoted into 2×10^5/well density in a 24-well plate (Falcon) in which glial cells of cerebral cortex had been cultured in an incubator maintained at 37° C. with 5% CO2 for over 3 weeks. The culture medium was supplemented with MEM (minimum essential medium, Sigma), 2 mM glutamine, 21 mM glucose, 26.5 mM bicarbonate, 10% fetal bovine serum (FBS). In 3-5 days after aliquot, 10 μM Ara-C (cytosine arabinoside) was treated to suppress proliferation of neuroglia. And it was treated with 100 μM NMDA and 1 μg/mL or 2 μg/mL of each sample (compound) to induce the death of nerve cells due to excitable toxicity for 20 minutes, in 12-15 days after aliquot. Because of nerve cell death, lactate dehydrogenase (LDH) accumulated in proportion to the number of dead cells. In 24 hours after drug treatment, the amount of dehydrogenase (LDH) released to outside of cells was measured by using an […] measurement kit (CytoTox 96, Promega). After the reaction was completed, the change of absorbance depending on the amount of LDH was measured by using a microplate spectrophotometer.

[4] = tested on: middle cerebral artery occlusion (MCAO) model; assay: Anti-stroke effect in MCAO model, intravenous administration around reperfusion; format: in vivo, rats of SD species; conditions: for Inhibitory percentage compared to negative control / Infarcted volume (Mean ± standard deviation): 1 mg/kg iv; for Infarcted volume (Mean ± standard deviation): negative control 0.43 ± 0.02
Protocol: Male rats of SD species with 290-300 g of body weight were used as laboratory animals, and 8 rats were used in each experiment group. The operation was performed by using the method of Nagasawa et al. (Nagasawa, H. and Gogure, K. 1989, Stroke, 20: 1037-1043).
The rats were anesthetized by Ketamine, and the operation was performed as body temperature was maintained using thermoplate. The cerebral region was incised following the median line of the neck, and the left common carotid artery, internal carotid artery and external carotid artery were separated, taking care not to damage the vagus nerve. The common carotid artery and external carotid artery were ligatured, and a probe was inserted into the internal carotid artery from the branch point of the internal and external carotid arteries. And then the fundus of the middle cerebral artery was occluded by ligature just on the upper side of the insertion region. A probe was made by heating the end of a 4-0 nylon surgical suture (Dafilon, B. Braun, Germany) and cut into 30 mm. The 7-9 mm end of the probe was coated with the mixture of silcon (Xantopren VL plus, Heraeus Kulzer, Germany) and curing agent (Optosyl-Xantopren VL plus, Heraeus Kulzer, Germany), and the thickness was to be 0.3-0.4 mm. After the intervention of the probe insertion and the animals came out of the anesthetic, individuals in which neurological deficit symptom (right direction circling) was observed were included in the ischemia group.
After 3 hours of ischemia, the inserted probe was removed to reperfuse blood circulation. The brain was extracted after 24 hours, followed by histological staining.
The compound 3 was administered at a programmed time before or after insertion of the probe with oral or intravenous administration. TTC (2,3,5-triphenyltetrazolium chloride) staining was performed to estimate the damage of brain tissue by ischemia. Procephalon of the extracted brain was sliced into 2 mm of sequential slice by using brain matrix (ASI instrument, Warren, Mich., USA). The slices were put into 2% of TTC solution and incubated at 37° C. for 60 minutes for staining. The TTC stained brain slice was fixed in 10% of formalin buffer and the front of the each slice was photographed with a digital camera. The infarcted areas (cm^2) that were not stained with deep red in each acquired image were measured using an image analyzer, and total infarcted volume (cm^3) was calculated by multiplying the thickness of the slices
In the experiment, the probe was removed after stoke induction so that circulation was reperfused.

[5] = treatment time 0.5 after reperfusion
[6] = treatment time 1 after reperfusion
[7] = treatment time 2 after reperfusion
[8] = treatment time 4 after reperfusion
[9] = treatment time 6 after reperfusion
[10] = treatment time 12 after reperfusion
[11] = treatment time 18 after reperfusion
[12] = treatment time 24 after reperfusion
[13] = treatment time −0.5 after reperfusion

## O=c1[nH]c2ccccc2c(=O)n1CCCNCCCCN(CCCn1c(=O)[nH]c2ccccc2c1=O)Cc1ccccc1 [Compound 9, 3-{3-[4-({N-[3-(2,4-dioxo-1,4-dihydro-2H-quinazolin-3-yl)propyl]-N-benzyl}amino)butylamino]propyl}-1H-quinazoline-2,4-dione]
[1]
  Relaxation percentage: 95.5%
[2]
  mortality rate: 67(4/6) %
  Induction percentage of convulsion: 100(6/6) %
  Initiation time of convulsion: 4.4 ± 0.7 min
  Duration of convulsion: 39.8 ± 10.3 min
[3]; 1 μg/ml compound
  Inhibitory effect of cell death by NMDA-induced excitable neurotoxicity: 21.4%
[3]; 2 μg/ml compound
  Inhibitory effect of cell death by NMDA-induced excitable neurotoxicity: 33.3%

## O=C(c1ccccc1)N(CCCCNCCCn1c(=O)[nH]c2ccccc2c1=O)CCCn1c(=O)[nH]c2ccccc2c1=O [Compound 10, N-[3-(2,4-dioxo-1,4-dihydro-2H-quinazolin-3-yl)propyl]-N-{4-[3-(2,4-dioxo-1,4-dihydro-2H-quinazolin-3-yl)propylamino]butyl}benzamide]
[1]
  inhibition at 67 µg/mL: 4.9%
[2]
  mortality rate: 17(1/6) %
  Induction percentage of convulsion: 100(6/6) %
  Initiation time of convulsion: 5.8 ± 1.4 min
  Duration of convulsion: 49.9 ± 5.4 min
[3]; 1 μg/ml compound
  Inhibitory effect of cell death by NMDA-induced excitable neurotoxicity: 15.4%
[3]; 2 μg/ml compound
  Inhibitory effect of cell death by NMDA-induced excitable neurotoxicity: 13.7%

## CS(=O)(=O)N(CCCCN(CCCn1c(=O)[nH]c2ccccc2c1=O)S(C)(=O)=O)CCCn1c(=O)[nH]c2ccccc2c1=O [Compound 18, N-[3-(2,4-dioxo-1,4-dihydro-2H-quinazolin-3-yl)propyl]-N-(4-{[3-(2,4-dioxo-1,4-dihydro-2H-quinazolin-3-yl)propyl]methansulfonylamino}butyl)methansulfonamide]
[1]
  inhibition at 67 µg/mL: 42.4%
[2]
  mortality rate: 0(0/6) %
  Induction percentage of convulsion: 83(5/6) %
  Initiation time of convulsion: 19.1 ± 8.4 min
  Duration of convulsion: 5.2 ± 3.4 min
[3]; 1 μg/ml compound
  Inhibitory effect of cell death by NMDA-induced excitable neurotoxicity: 44.4%
[3]; 2 μg/ml compound
  Inhibitory effect of cell death by NMDA-induced excitable neurotoxicity: 21.0%

## CC(=O)N(CCCCNCCCn1c(=O)[nH]c2ccccc2c1=O)CCCNC(=O)c1ccc(O)cc1 [Compound 19, N-[3-(acetyl-{4-[3-(2,4-dioxo-1,4-dihydro-2H-quinazolin-3-yl)propylamino]butyl}amino)propyl]-4-hydroxybenzamide]
[1]
  inhibition at 67 µg/mL: 11.8%
[2]
  mortality rate: 0(0/6) %
  Induction percentage of convulsion: 50(3/6) %
  Initiation time of convulsion: 38.7 ± 1.5 min
  Duration of convulsion: 1.8 ± 2.7 min
[3]; 1 μg/ml compound
  Inhibitory effect of cell death by NMDA-induced excitable neurotoxicity: 40.1%
[3]; 2 μg/ml compound
  Inhibitory effect of cell death by NMDA-induced excitable neurotoxicity: 45.2%

## CC(=O)N(CCCCNCCCNC(=O)c1ccc(O)cc1)CCCn1c(=O)[nH]c2ccccc2c1=O [Compound 20, N-[3-(4-{acetyl-[3-(2,4-dioxo-1,4-dihydro-2H-quinazolin-3-yl)propyl]amino}butylamino)propyl]-4-hydroxybenzamide]
[1]
  inhibition at 67 µg/mL: 15.2%
[2]
  mortality rate: 0(0/6) %
  Induction percentage of convulsion: 50(3/6) %
  Initiation time of convulsion: 44.7 ± 11.0 min
  Duration of convulsion: 0.9 ± 1.9 min
[3]; 1 μg/ml compound
  Inhibitory effect of cell death by NMDA-induced excitable neurotoxicity: 36.4%
[3]; 2 μg/ml compound
  Inhibitory effect of cell death by NMDA-induced excitable neurotoxicity: 42.5%

## CN1C(=O)CN=C(c2ccccc2)c2cc(Cl)ccc21 [Diazepam, reference compound]
[2]
  mortality rate: 0(0/6) %
  Induction percentage of convulsion: 0(0/6) %

## C[C@]12N[C@H](Cc3ccccc31)c1ccccc12 [MK-801]
[4]; [5]
  Inhibitory percentage compared to negative control: 50.2%
  Infarcted volume (Mean ± standard deviation): 0.21 ± 0.04 cm^3
[4]; [6]
  Inhibitory percentage compared to negative control: 27.0%
  Infarcted volume (Mean ± standard deviation): 0.31 ± 0.02 cm^3
[4]; [7]
  Inhibitory percentage compared to negative control: 22.8%
  Infarcted volume (Mean ± standard deviation): 0.33 ± 0.02 cm^3
[4]; [8]
  Inhibitory percentage compared to negative control: 34.4%
  Infarcted volume (Mean ± standard deviation): 0.28 ± 0.08 cm^3
[4]; [9]
  Inhibitory percentage compared to negative control: 13.3%
  Infarcted volume (Mean ± standard deviation): 0.37 ± 0.06 cm^3
[4]; [10]
  Inhibitory percentage compared to negative control: 8.7%
  Infarcted volume (Mean ± standard deviation): 0.39 ± 0.06 cm^3
[4]; [11]
  Inhibitory percentage compared to negative control: 7.4%
  Infarcted volume (Mean ± standard deviation): 0.40 ± 0.08 cm^3
[4]; [12]
  Inhibitory percentage compared to negative control: 8.8%
  Infarcted volume (Mean ± standard deviation): 0.39 ± 0.05 cm^3
[4]; [13]
  Inhibitory percentage compared to negative control: 55.4%
  Infarcted volume (Mean ± standard deviation): 0.19 ± 0.06 cm^3
[4]; positive control, iv
  Treatment time after reperfusion giving the maximum effect: 30 min
[3]; 1 μg/ml compound
  Inhibitory effect of cell death by NMDA-induced excitable neurotoxicity: 49.0%
[3]; 2 μg/ml compound
  Inhibitory effect of cell death by NMDA-induced excitable neurotoxicity: 63.6%
